Reference: patent US20240216344A1, “THIAZOLIDINEDIONE ANALOGS FOR THE TREATMENT OF NAFLD AND METABOLIC DISEASES” (Cirius Therapeutics, Inc., priority 2019, published 2024)

Assays:
[1] = system: cell functions and key regulatory proteins; assay: Impact of MSDC-0602K vs overnutrition on cell functions and key regulatory proteins (Table 1)
[2] = system: patients with biopsy-proven NASH with fibrosis and no cirrhosis; assay: EMMINENCE Phase 2b trial, liver histology at 12 months; type: in vivo, human; conditions: for subjects showing NAS histological improvement: PNPLA3 rs738409-G both copies (GG genotype)
Protocol: embodiments, the histological features are measured by a NAFLD Activity Score (NAS). The scoring system comprised 14 histological features, 4 of which are evaluated semi-quantitatively: steatosis (0-3), lobular inflammation (0-2), hepatocellular ballooning (0-2), and fibrosis (0-4). Another nine features are recorded as present or absent. A liver biopsy of the subject is formalin-fixed and paraffin-embedded. Serial sections of the liver biopsy are hematoxylin and eosin (H&E) stained. The liver biopsy stained sections are examined for NAS scores. For example, hepatocellular ballooning is graded from 0 to 2 (0: normal hepatocytes with cuboidal shape and pink eosinophilic cytoplasm; 1: presence of clusters of hepatocytes with a rounded shape and pale cytoplasm usually reticulated. Lobular inflammation is defined as a focus of two or more inflammatory cells within the lobule. Foci are counted at 20 magnification (0: none; 1: 2 foci per 20; 2: >2 foci per 20).
Study Design: EMMINENCE was a randomized, double-blind evaluation of three oral daily doses of MSDC-0602K (62.5 mg, 125 mg and 250 mg) or placebo given for 12 months to adult patients with biopsy-proven NASH with fibrosis and no cirrhosis. The primary efficacy endpoint was assessed at 12 months. Clinic visits were conducted at baseline, 1, 2, 3, 6, 9, and 12 months, followed 2 weeks later by a safety visit. An interim analysis of safety and efficacy not related to the primary and secondary endpoints was conducted when 6 month data were available for 328 patients (see Example 5, above.) Interim results were provided only as summary statistics to avoid any unmasking of the study team or sponsor.
Participants: Eligible patients were at least 18 years old with NASH (NAS≥4; score ≥1 in each component [steatosis, ballooning, inflammation]) with F1 to F3 fibrosis on liver biopsy taken between 9 months prior to screening and randomization according to a central histopathologist.
If no usable liver biopsy was available within 9 months prior to screening, a percutaneous liver biopsy was performed in patients with AST≥20 U/L and FibroScan CAP score ≥270 db/m and kPa≥8.5. Digitized slides were read by a single expert histopathologist according to NASH Clinical Research Network criteria. Baseline biopsies were read first for study qualification and a second time mixed randomly among 12-month biopsies. Fasting blood samples for routine central laboratory analyses were collected at each visit, and frozen samples collected at selected visits for biomarker assays.
Efficacy endpoints: The primary efficacy endpoint was hepatic histological improvement in NAS defined as ≥2-point NAS decrease with a ≥1-point reduction in either ballooning or lobular inflammation and no increase in fibrosis stage at 12 months. Secondary efficacy endpoints included (1) NASH resolution defined as hepatocellular ballooning score of 0 and lobular inflammation score of 0-1 with no increase in fibrosis stage at 12 months, (2) fibrosis improvement defined as ≥1-stage decrease in fibrosis with no worsening of lobular inflammation or hepatocellular ballooning, (3) change from baseline in NAFLD activity score (NAS) and each one of its components (steatosis, lobular inflammation and ballooning) at 12 months, and (4) change from baseline in fibrosis score at 12 months. Exploratory efficacy endpoints included shifts in the central histopathologist's NASH diagnosis confirmation, and changes from baseline to 12 months in markers of glycemic control and insulin sensitivity, liver function/injury, and apoptosis and liver fibrosis.
Using a modified intent-to-treat approach, treated patients were included for analysis in their randomly-assigned treatment groups. Participation of sites with serious GCP or quality concerns were terminated and their data excluded from the analyses. Post-baseline measures through 14 days after the last study drug dose were included. No errors in treatment assignment occurred. […]

[3] = 125 mg and 250 mg combined vs placebo, 12 months
[4] = 125 mg and 250 mg combined, 12 months

With `COc1cccc(C(=O)COc2ccc(CC3SC(=O)NC3=O)cc2)c1` (centres unmarked) [MSDC-0602K] the “Fatty acid oxidation (burning fat)” value [1] was “Increased”, the HIF1α [1] was “Decreased” and the “Inflammation (ballooning due to injury)” value [1] was “Decreased”. The “Insulin sensitivity (cellular response to insulin)” value [1] was “Increased”, the “PPARγ, PPARα” value [1] was “Increased” and the SREBP [1] was “Decreased”. For the same compound, the “de novo lipid synthesis (making new fat)” value [1] was “Decreased”, the mTORC1 [1] was “Decreased” and the “confirmed NASH diagnosis at baseline (re-read) not confirmed at 12 months” value ([2]; 62.5 mg) was 32.1%. The “Fibrosis improvement, adjusted OR” value ([2]; 62.5 mg vs placebo, 12 months) was 1.19, the “Fibrosis improvement, adjusted risk difference” value ([2]; 62.5 mg vs placebo, 12 months) was 0.028 and the “NAS improvement, adjusted OR” value ([2]; 62.5 mg vs placebo, 12 months) was 0.89. The “NAS improvement, adjusted risk difference” value ([2]; 62.5 mg vs placebo, 12 months) was −0.020, the “NASH resolution, adjusted OR” value ([2]; 62.5 mg vs placebo, 12 months) was 1.09 and the “NASH resolution, adjusted risk difference” value ([2]; 62.5 mg vs placebo, 12 months) was 0.013. The “Fibrosis improvement, % of patients” value ([2]; 62.5 mg, 12 months) was “(23.8) %”, the “Fibrosis improvement, n/N” value ([2]; 62.5 mg, 12 months) was 20/84 and the “NAS improvement (primary endpoint), n/N” value ([2]; 62.5 mg, 12 months) was 25/84. For the same compound, the “NASH resolution, % of patients” value ([2]; 62.5 mg, 12 months) was “(20.2) %”, the “NASH resolution, n/N” value ([2]; 62.5 mg, 12 months) was 17/84 and the “adjusted mean difference in NAS change to 12 months vs placebo” value ([2]; 125 mg) was −0.6 points. The “adjusted mean difference in steatosis change to 12 months vs placebo” value ([2]; 125 mg) was −0.2 points, the “confirmed NASH diagnosis at baseline (re-read) not confirmed at 12 months” value ([2]; 125 mg) was 26.5% and the “Fibrosis improvement, adjusted OR” value [2, 3] was 1.48. The “Fibrosis improvement, adjusted risk difference” value [2, 3] was 0.073, the “NAS improvement, adjusted OR” value [2, 3] was 1.43 and the “NAS improvement, adjusted risk difference” value [2, 3] was 0.075. For the same compound, the “NASH resolution, adjusted OR” value [2, 3] was 1.66, the “NASH resolution, adjusted risk difference” value [2, 3] was 0.093 and the “Fibrosis improvement, % of patients” value [2, 4] was “(28.6) %”. For the same compound, the “Fibrosis improvement, n/N” value [2, 4] was 48/168, the “NAS improvement (primary endpoint), % of patients” value [2, 4] was “(36.3) %” and the “NAS improvement (primary endpoint), n/N” value [2, 4] was 61/168. For the same compound, the “NASH resolution, % of patients” value [2, 4] was “(29.8) %”, the “NASH resolution, n/N” value [2, 4] was 50/168 and the “Fibrosis improvement, adjusted OR” value ([2]; 125 mg vs placebo, 12 months) was 1.45. The “Fibrosis improvement, adjusted risk difference” value ([2]; 125 mg vs placebo, 12 months) was 0.067, the “NAS improvement, adjusted OR” value ([2]; 125 mg vs placebo, 12 months) was 1.22 and the “NAS improvement, adjusted risk difference” value ([2]; 125 mg vs placebo, 12 months) was 0.044. For the same compound, the “NASH resolution, adjusted OR” value ([2]; 125 mg vs placebo, 12 months) was 1.50, the “NASH resolution, adjusted risk difference” value ([2]; 125 mg vs placebo, 12 months) was 0.075 and the “Fibrosis improvement, % of patients” value ([2]; 125 mg, 12 months) was “(28.0) %”. For the same compound, the “Fibrosis improvement, n/N” value ([2]; 125 mg, 12 months) was 23/82, the “NAS improvement (primary endpoint), n/N” value ([2]; 125 mg, 12 months) was 27/82 and the “NASH resolution, % of patients” value ([2]; 125 mg, 12 months) was “(28.0) %”. The “NASH resolution, n/N” value ([2]; 125 mg, 12 months) was 23/82, the “adjusted mean difference in NAS change to 12 months vs placebo” value ([2]; 250 mg) was −0.5 points and the “adjusted mean difference in steatosis change to 12 months vs placebo” value ([2]; 250 mg) was −0.3 points. The “confirmed NASH diagnosis at baseline (re-read) not confirmed at 12 months” value ([2]; 250 mg) was 30.2%, the “Fibrosis improvement, adjusted OR” value ([2]; 250 mg vs placebo, 12 months) was 1.51 and the “Fibrosis improvement, adjusted risk difference” value ([2]; 250 mg vs placebo, 12 months) was 0.077. The “NAS improvement, adjusted OR” value ([2]; 250 mg vs placebo, 12 months) was 1.64, the “NAS improvement, adjusted risk difference” value ([2]; 250 mg vs placebo, 12 months) was 0.104 and the “NASH resolution, adjusted OR” value ([2]; 250 mg vs placebo, 12 months) was 1.82. For the same compound, the “NASH resolution, adjusted risk difference” value ([2]; 250 mg vs placebo, 12 months) was 0.108, the “Fibrosis improvement, % of patients” value ([2]; 250 mg, 12 months) was “(29.1) %” and the “Fibrosis improvement, n/N” value ([2]; 250 mg, 12 months) was 25/86. The “NAS improvement (primary endpoint), n/N” value ([2]; 250 mg, 12 months) was 34/86, the “NASH resolution, % of patients” value ([2]; 250 mg, 12 months) was “(31.4) %” and the “NASH resolution, n/N” value ([2]; 250 mg, 12 months) was 27/86. The “subjects showing NAS histological improvement” value ([2]; 62.5 mg) was “about 17.9%” and the “subjects showing NAS histological improvement” value ([2]; 250 mg) was “about 34.5%”.
